Experimental data reported in patent publication US9439904B2, “Pyrimidine compounds and their use as gamma secretase modulators” (Acturum Life Science AB, priority 2013, dated 2016).

Assays:
Aβ42 [1] = assay: HEK assay: Aβ42 secreted to cell medium, Meso Scale Discovery electrochemiluminescence; format: cell-based; conditions: Homo sapiens, HEK293; HEK cell line stably expressing APPswe; 4-6 hours incubation with test compound; read-out: pIC50 Aβ42 HEK assay (converted)
Procedure: Compounds were diluted in 100% DMSO and stored at […] prior to use. Human Embryonic Kidney (HEK) cell line stably expressing APP with the Swedish mutation (APPswe) was cultured using Dulbecco's Modified Eagles medium (DMEM) supplied with […] glucose, Na-pyruvate and GlutaMAX, 10% Foetal bovine serum, 100 U/mL penicillin-streptomycin (PEST), 1× non-essential amino acids (NEAA), […] Hepes, 100 μg/mL Zeocine. Cells at about 80% confluence were washed with PBS, detached from culture flasks using 1× Trypsin/EDTA diluted in PBS, re-suspended in cell media and plated in 384-well poly-d-lysine coated cell culture plates at about 10000-15000 cells/well, in 25 μL cell media. Optionally, cryo-preserved cells (frozen and stored at −140° C. in 90% cell media and 10% DMSO) were thawed, washed and plated as above. Next the cells were incubated for 15-24 h at 37° C. and 5% CO2, after which cell medium was changed. Fresh medium containing test compound diluted ×200 from prepared compound plate was added to the cells before further incubation for 4-6 hours at 37° C. and 5% CO2. After incubation with test compound the amount of Aβ peptides, including Aβ42, Aβ40, Aβ39, Aβ38 and Aβ37, secreted to cell medium was analyzed using the electrochemiluminescence assay technology from Meso Scale Discovery Technology, in combination with specific antibodies raised against the different Aβ peptides. Potential cytotoxic effects of the compounds were assayed by measuring the ATP content (ViaLight) from cell lysate.

Aβ42 [2] = assay: PCN assay: Aβ42 secreted by primary cortical neuronal cells, ELISA; format: cell-based; conditions: primary cortical neuronal cells from 16-day mouse embryos; 16-20 hours incubation with test compound; read-out: pIC50 Aβ42 PCN assay (converted)
Procedure: Compounds were diluted in 100% DMSO and stored at […] prior to use. Primary cortical neuronal cells (PCN) were isolated from 16-day mouse embryos and cultured in Ham's F12 media containing 10% Foetal bovine serum, 10 mM Hepes, 2 mM L-glutamine and 100 U/mL Penicillin-Streptomycin. 150000-250000 cells/well, in 200 μL cell media were seeded onto 96-well poly-D-Lysine coated plates. After incubation at 37° C., 5% CO2 for five days, the media was exchanged for fresh medium containing test compound diluted ×100, before further incubation for 16-20 hours at 37° C. and 5% CO2. After incubation with test compound the amount of […] secreted to cell medium was analyzed using the solid phase sandwich Enzyme-Linked-Immuno-Sorbent Assay (ELISA)-kit from Invitrogen for detection of mouse βAmyloid 1-42. Potential cytotoxic effects of the compounds were assayed by measuring the ATP content (Via Light) from cell lysate.

IC50 (Aβ42 [1]) [nM] | SMILES | IC50 (Aβ42 [2]) [nM]
31.6 | COc1cc(Nc2nc(COCC(F)(F)F)cc(C(C)N3CC(F)C3)n2)ccc1-n1cnc(C)c1 (stereo not drawn) [Example 43, 4-(1-(3-Fluoroazetidin-1-yl)ethyl)-N-(3-methoxy-4-(4-methyl-1H-imidazol-1-yl)phenyl)-6-((2,2,2-trifluoroethoxy)methyl)pyrimidin-2-amine] | 158
50.1 | COc1cc(Nc2nc(COCC(F)(F)F)cc(C(C)O)n2)ccc1-n1cnc(C)c1 (stereo not drawn) [Example 44, 1-(2-(3-Methoxy-4-(4-methyl-1H-imidazol-1-yl)phenylamino)-6-((2,2,2-trifluoroethoxy)-methyl)pyrimidin-4-yl)ethanol] | 100
50.1 | CCC(C)(O)c1cc(COCC(F)(F)F)nc(Nc2ccc(-n3cnc(C)c3)c(OC)c2)n1 (stereo not drawn) [Example 45, 2-(2-(3-Methoxy-4-(4-methyl-1H-imidazol-1-yl)phenylamino)-6-((2,2,2-trifluoroethoxy)-methyl)pyrimidin-4-yl)butan-2-ol] | 63.1
79.4 | COc1cc(Nc2nc(COCC(F)(F)F)cc(C(O)c3ccccc3)n2)ccc1-n1cnc(C)c1 (stereo not drawn) [Example 49, (2-(3-Methoxy-4-(4-methyl-1H-imidazol-1-yl)phenylamino)-6-((2,2,2-trifluoroethoxy)-methyl)pyrimidin-4-yl)(phenyl)methanol] | 79.4

The next lines start with the compound.

SMILES | IC50 (Aβ42 [1]) [nM] | IC50 (Aβ42 [2]) [nM]
COCCNc1cc(COCC(F)(F)F)nc(Nc2ccc(-n3cnc(C)c3)c(OC)c2)n1 [Example 37, N2-(3-Methoxy-4-(4-methyl-1H-imidazol-1-yl)phenyl)-N4-(2-methoxyethyl)-6-((2,2,2-trifluoroethoxy)methyl)pyrimidine-2,4-diamine] | 39.8 | 63.1
COc1cc(Nc2nc(COCC(F)(F)F)cc(NCCC#N)n2)ccc1-n1cnc(C)c1 [Example 38, 3-(2-(3-Methoxy-4-(4-methyl-1H-imidazol-1-yl)phenylamino)-6-((2,2,2-trifluoroethoxy)-methyl)pyrimidin-4-ylamino)propanenitrile] | 50.1 | 39.8
COc1cc(Nc2nc(CNCc3ccccc3)cc(COCC(F)(F)F)n2)ccc1-c1cnnc(C)c1 [Example 39, 4-((Benzylamino)methyl)-N-(3-methoxy-4-(6-methylpyridazin-4-yl)phenyl)-6-((2,2,2-trifluoroethoxy)methyl)pyrimidin-2-amine] | 126 | 200
COc1cc(Nc2nc(COCC(F)(F)F)cc(CN3CC(F)C3)n2)ccc1-n1cnc(C)c1 [Example 40, 4-((3-Fluoroazetidin-1-yl)methyl)-N-(3-methoxy-4-(4-methyl-1H-imidazol-1-yl)phenyl)-6-((2,2,2-trifluoroethoxy)methyl)pyrimidin-2-amine] | 126 | 100
COc1cc(Nc2nc(COCC(F)(F)F)cc(CN3CC(F)C3)n2)ccc1-c1cnnc(C)c1 [Example 42, 4-((3-Fluoroazetidin-1-yl)methyl)-N-(3-methoxy-4-(6-methylpyridazin-4-yl)phenyl)-6-((2,2,2-trifluoroethoxy)methyl)pyrimidin-2-amine] | 79.4 | 251
COc1cc(Nc2nc(COCC(F)(F)F)cc(C(C)(C)O)n2)ccc1-c1cnc(C)o1 [Example 46, 2-(2-(3-Methoxy-4-(2-methyloxazol-5-yl)phenylamino)-6-((2,2,2-trifluoroethoxy)methyl)-pyrimidin-4-yl)propan-2-ol] | 39.8 | 79.4
COc1cc(Nc2nc(COCC(F)(F)F)cc(C(C)(C)O)n2)ccc1-c1cnnc(C)c1 [Example 47, 2-(2-(3-Methoxy-4-(6-methylpyridazin-4-yl)phenylamino)-6-((2,2,2-trifluoroethoxy)-methyl)pyrimidin-4-yl)propan-2-ol] | 50.1 | 100
COc1cc(Nc2nc(COCC(F)(F)F)cc(C(C)(O)C(C)C)n2)ccc1-c1cnc(C)o1 (stereo not drawn) [Example 48, 2-(2-(3-Methoxy-4-(2-methyloxazol-5-yl)phenylamino)-6-((2,2,2-trifluoroethoxy)methyl)-pyrimidin-4-yl)-3-methylbutan-2-ol] | 25.1 | 50.1
